Values quoted from earlier work in patent US20120283197A1, “Compositions Comprising a Glucose Anti-Metabolite, BHA, and/or BHT” (priority 2011, published 2012).
One block for each compound: values may come before it.

How the values were obtained:
[1] = tested on: cultured insulin secreting cells
[2] = tested on: adipocytes; settings: rats, fed for 18 months, 140 mg/Kg body weight per day
[3] = tested on: hexokinase or other glycolytic enzymes; settings: extracts of mouse lung
[4] = rats, fed for 18 months, 140 mg/Kg body weight per day
[5] = mice, dogs, and other species

Structure (SMILES): COc1ccc(O)c(C(C)(C)C)c1 [BHA, butylated hydroxyanisole]
- alloxan-induced increase in insulin secretion [1]: prevent the alloxan-induced increase in insulin secretion
- negative effects of alloxan [1]: blocked the negative effects of alloxan

- effect on hexokinase or other glycolytic enzymes [3]: no effect
Structure (SMILES): Cc1cc(C(C)(C)C)c(O)c(C(C)(C)C)c1 [BHT, butylated hydroxytoluene]
- age-related reduction in insulin-stimulated glucose transport in adipocytes [2]: partially ameliorated
- insulin sensitivity [4]: increased insulin sensitivity

Structure (SMILES): O=C(CO)[C@@H](O)[C@@H](O)[C@H](O)[C@H](O)CO [Mannoheptulose, mannoheptulose]
- plasma insulin levels and/or insulin sensitivity [5]: lower plasma insulin levels and/or increase insulin sensitivity
